Patent US20040014066A1, “Screening system” (priority 2000, published 2004)
“Also recorded” adds a separate entry of the source. Positions of bridges follow the written chain, without caps; N, C: chain ends. Non-standard residues stand in square brackets, D forms with d. Residues, ends and D or L forms follow the SMILES beside them. *: point of attachment. Ileψ(thiazoline)Cys = CC[C@H](C)[C@H](N)C1=N[C@H](C(=O)*)CS1; dOrn = NCCC[C@@H](N)C(=O)O

Test system: sigE promoter
Test: sigE promoter bioassay: sigEp-neo fusion (pIJ6880) in M600, paper discs on MMT medium with lethal kanamycin, halo of kanamycin-resistant growth
Format: cell-based, Streptomyces coelicolor A3(2)
Details: for induction of the sigE promoter (halo of kanamycin-resistant growth), in words: M600 carrying pIJ6880, MMT medium, kanamycin 100 μg ml^−1, paper disc; for potency as inducer of the sigE promoter, in words: M600 carrying pIJ6880, kanamycin 100 μg ml^−1, paper disc
Description: To see if the sigE promoter could be induced by control-antibiotics known to target the cell envelope, spores of M600 carrying pIJ6880 were spread on MMT medium carrying a lethal concentration of kanamycin (100 μg ml^−1) and potential inducers were applied on paper discs to the freshly spread plates.
In order to perform the assay of the invention,spores of the host microorganism, for example, M600 carrying pIJ6880, are spread on MMT medium carrying a lethal concentration of kanamycin (100 μg ml^−1)at concentration of approximately 5×10^6/12 cm^2 plate. Test compound is applied on paper discs to a number of freshly spread plates in parallel using a different concentration of the test compound in each plate.

Molecule	induction of the sigE promoter (halo of kanamycin-resistant growth), in words	further results
CC1(C)S[C@@H]2[C@H](NC(=O)[C@H](N)c3ccc(O)cc3)C(=O)N2[C@H]1C(=O)O [Amoxycillin]	induced a halo of kanamycin-resistant growth	–
CC1(C)S[C@@H]2[C@H](NC(=O)[C@H](N)c3ccccc3)C(=O)N2[C@H]1C(=O)O [Ampicillin]	found to induce the sigE promoter	–
CC[C@H](C)[C@H](N)C1=N[C@H](C(=O)N[C@@H](CC(C)C)C(=O)N[C@H](CCC(=O)O)C(=O)N[C@H](C(=O)N[C@H]2CCCCNC(=O)[C@H](CC(N)=O)NC(=O)[C@@H](CC(=O)O)NC(=O)[C@H](Cc3cnc[nH]3)NC(=O)[C@@H](Cc3ccccc3)NC(=O)[C@H]([C@@H](C)CC)NC(=O)[C@@H](CCCN)NC2=O)[C@@H](C)CC)CS1 [Bacitracin] ({Ileψ(thiazoline)Cys}-L[dE]IK[dOrn]I[dF]H[dD]N; lactam 4-C)	found to induce the sigE promoter	potency as inducer of the sigE promoter, in words: particularly potent inducers
N[C@@H](C(=O)N[C@@H]1C(=O)N2C(C(=O)O)=C(Cl)CS[C@H]12)c1ccccc1 [Cefaclor]	found to induce the sigE promoter	–
CC1=C(C(=O)O)N2C(=O)[C@@H](NC(=O)[C@H](N)c3ccc(O)cc3)[C@H]2SC1 [Cefadroxil]	found to induce the sigE promoter	–
CC1=C(C(=O)O)N2C(=O)[C@@H](NC(=O)[C@H](N)c3ccccc3)[C@H]2SC1 [Cephalexin]	found to induce the sigE promoter	–
CC1=C(C(=O)O)N2C(=O)[C@@H](NC(=O)[C@H](N)C3=CCC=CC3)[C@H]2SC1 [Cepharadine]	found to induce the sigE promoter	–
CO[C@@H]1[C@@H](OC(N)=O)[C@@H](O)[C@H](Oc2ccc3c(O)c(NC(=O)c4ccc(O)c(CC=C(C)C)c4)c(=O)oc3c2C)OC1(C)C [Novobiocin]	do not induce a halo	–
CC1(C)S[C@@H]2[C@H](NC(=O)Cc3ccccc3)C(=O)N2[C@H]1C(=O)O [Penicillin G]	induced a halo of kanamycin-resistant growth; also recorded: found to induce the sigE promoter	–
[H]/N=C(/N)N[C@H]1[C@H](O)[C@@H](O)[C@H](O[C@@H]2O[C@@H](C)[C@](O)(C=O)[C@H]2O[C@@H]2O[C@@H](CO)[C@H](O)[C@@H](O)[C@@H]2NC)[C@@H](N/C(N)=N\[H])[C@@H]1O [Streptomycin]	do not induce a halo	–
C=C(NC(=O)C(=C)NC(=O)c1csc(C2=N[C@@H]3c4csc(n4)[C@H]4NC(=O)c5csc(n5)[C@H]([C@](C)(O)[C@@H](C)O)NC(=O)[C@H]5CSC(=N5)/C(=C/C)NC(=O)[C@H]([C@@H](C)O)NC(=O)c5csc(n5)[C@]3(CC2)NC(=O)[C@H](C)NC(=O)C(=C)NC(=O)[C@H](C)NC(=O)[C@H]([C@@H](C)CC)N[C@@H]2C=Cc3c([C@H](C)O)cc(nc3[C@H]2O)C(=O)O[C@@H]4C)n1)C(N)=O [Thiostrepton]	do not induce a halo	–
CC1(C)S[C@@H]2[C@H](NC(=O)[C@H](C(=O)O)c3ccsc3)C(=O)N2[C@H]1C(=O)O [Ticarcillin]	induced a halo of kanamycin-resistant growth; also recorded: found to induce the sigE promoter	–
CN[C@H](CC(C)C)C(=O)N[C@H]1C(=O)N[C@@H](CC(N)=O)C(=O)N[C@H]2C(=O)N[C@H]3C(=O)N[C@H](C(=O)N[C@H](C(=O)O)c4cc(O)cc(O)c4-c4cc3ccc4O)[C@H](O)c3ccc(c(Cl)c3)Oc3cc2cc(c3O[C@@H]2O[C@H](CO)[C@@H](O)[C@H](O)[C@H]2O[C@H]2C[C@](C)(N)[C@H](O)[C@H](C)O2)Oc2ccc(cc2Cl)[C@H]1O [Vancomycin]	induced a halo of kanamycin-resistant growth; also recorded: found to induce the sigE promoter	potency as inducer of the sigE promoter, in words: particularly potent inducers; signs of toxicity to the reporter strain while acting as inducer (halo grows to the edge of the disc) (paper disc, FIG. 2): without showing any signs of toxicity
Cc1onc(-c2ccccc2)c1C(=O)N[C@@H]1C(=O)N2[C@@H]1SC(C)(C)[C@@H]2C(=O)O [oxacillin]	found to induce the sigE promoter	–
Ristocetin	induced a halo of kanamycin-resistant growth; also recorded: found to induce the sigE promoter	potency as inducer of the sigE promoter, in words: particularly potent inducers; amount giving a positive reaction in the bioassay (initial assessment of sensitivity) (sigE promoter bioassay): 75 ng
Teicoplanin	induced a halo of kanamycin-resistant growth; also recorded: found to induce the sigE promoter	potency as inducer of the sigE promoter, in words: particularly potent inducers
lysozyme	acted as an inducer	–
